{"source": "paper PMC6151660", "about": "(Molecules : A Journal of Synthetic Chemistry and Natural …, 2017)", "origin": "cited, not measured here", "tested_on": "M. tuberculosis, H37Rv", "conditions": "cited from earlier work"}
{"smiles": "CO[C@@H]1[C@@H](OC(N)=O)[C@@H](O)[C@H](Oc2ccc3c(O)c(NC(=O)c4ccc(O)c(CC=C(C)C)c4)c(=O)oc3c2C)OC1(C)C", "note": "[Novobiocin]", "values": [{"measurement": "MIC", "result": "approximately 6.5 µM"}]}
